pIC50: −log10 of the molar value.
Key:
Assay type in all cases: functional
KB = experiment: Inhibitory activity against protein linked DNA breaks in KB cells at 25 ug/mL after 1 hour; settings: Homo sapiens
A549 = experiment: Inhibitory activity against A549 cell line; inactive; settings: Homo sapiens, read-out: ID50 (the source's name)
BT-549 = experiment: Inhibitory activity against BT549 cell line; inactive; settings: Homo sapiens, read-out: ID50 (the source's name)
PLC = experiment: Inhibitory activity against PLC cell line; inactive; settings: Homo sapiens, read-out: ID50 (the source's name)
SW480 = experiment: Inhibitory activity against SW480 cell line; inactive; settings: Homo sapiens, read-out: ID50 (the source's name)

Row | Compound | inhibition at 25 µg/mL (KB) | pIC50 (A549) | pIC50 (BT-549) | pIC50 (PLC) | pIC50 (SW480)
1 | CC[C@@]1(O)C(=O)OCc2c1cc1n(c2=O)Cc2c-1nc1ccccc1c2C=O | 107% | – | – | – | –
2 | CC[C@@]1(O)C(=O)OCc2c1cc1n(c2=O)Cc2c-1nc1ccccc1c2CO | 97.6% | – | – | – | –
3 | CC[C@@]1(O)C(=O)OCc2c1cc1n(c2=O)[C@H](C(=O)c2cc(OC)c(OC)c(OC)c2)c2cc3ccccc3nc2-1 | 0% | < 5.30 | < 5.30 | < 5.30 | < 5.30
4 | CC[C@@]1(O)C(=O)OCc2c1cc1n(c2=O)C(CO)(CO)c2cc3ccccc3nc2-1 | 0% | < 5.30 | < 5.30 | < 5.30 | < 5.30
5 | CC[C@@]1(O)C(=O)OCc2c1cc1n(c2=O)[C@@H](CO)c2cc3ccccc3nc2-1 | 8.7% | < 5.30 | < 5.30 | < 5.30 | < 5.30
6 | CC[C@@]1(O)C(=O)OCc2c1cc1n(c2=O)[C@H](CO)c2cc3ccccc3nc2-1 | 20.4% | < 5.30 | < 5.30 | < 5.30 | < 5.30
7 | CC[C@@]1(O)C(=O)OCc2c1cc1n(c2=O)Cc2cc3ccccc3nc2-1 [CAMPTOTHECIN] | 100% | – | – | – | –

From ChEMBL document CHEMBL1128143, “The synthesis of 5-substituted camptothecins as potential inhibitors of DNA topoisomerase I” (1995)
